# Patent US9527832B2, “Substituted condensed pyrimidine compounds” (GRÜNENTHAL GMBH, priority 2013, dated 2016)
# Tests used:
# human PDE4B1 = molecular target: T1, human PDE4B1 (Homo sapiens, UniProt Q07343); assay: cAMP HTRF assay to determine the activity of hPDE4B1; type: biochemical; details: for inhibition at 1 µM: Percentage inhibition of PDE4B at 1 μM test concentration; for IC50: dose response measurements with eight concentrations, reported as ranges, read-out: IC50
# T1 construct: host or cells: Sf9 cells
# Method in brief: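 Sf9-expressed recombinant human PDE4B1 (4.8 U) in Tris-HCl/MgCl2/DTT/Tween 20 buffer pH 7.8, with cAMP at 40 nM final, 30 min at room temperature. Reaction stopped with IBMX 1 mM; remaining cAMP detected by HTRF (665/620 nm ratio). IC50 from eight-point dose-response, n=2.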
# T1 sequence (Q07343 whole entry): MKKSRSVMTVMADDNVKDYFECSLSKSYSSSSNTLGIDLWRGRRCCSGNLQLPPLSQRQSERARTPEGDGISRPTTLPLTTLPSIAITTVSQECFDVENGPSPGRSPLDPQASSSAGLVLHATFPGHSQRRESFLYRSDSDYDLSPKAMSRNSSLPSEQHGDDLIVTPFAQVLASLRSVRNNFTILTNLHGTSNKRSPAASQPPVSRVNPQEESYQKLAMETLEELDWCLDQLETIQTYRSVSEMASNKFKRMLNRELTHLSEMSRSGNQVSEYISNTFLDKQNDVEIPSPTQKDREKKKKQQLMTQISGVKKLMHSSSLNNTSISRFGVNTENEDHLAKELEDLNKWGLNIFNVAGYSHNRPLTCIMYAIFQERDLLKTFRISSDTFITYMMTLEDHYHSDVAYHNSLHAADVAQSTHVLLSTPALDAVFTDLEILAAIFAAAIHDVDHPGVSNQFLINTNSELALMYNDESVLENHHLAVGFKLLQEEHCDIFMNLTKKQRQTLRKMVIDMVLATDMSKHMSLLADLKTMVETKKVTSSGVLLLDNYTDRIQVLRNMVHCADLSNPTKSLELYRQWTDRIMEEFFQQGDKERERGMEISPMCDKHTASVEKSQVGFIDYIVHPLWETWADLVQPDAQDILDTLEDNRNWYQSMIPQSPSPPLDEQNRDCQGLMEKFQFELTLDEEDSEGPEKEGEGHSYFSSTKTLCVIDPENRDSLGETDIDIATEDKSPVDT
melting point [°C],inhibition at 1 µM (human PDE4B1) [%],IC50 (human PDE4B1) [nM],Structure (SMILES)
192 to 195,96,< 100,"COc1ccc(-c2nc3c(c(N4CCc5cc(CC(=O)O)ccc54)n2)CS(=O)(=O)C3)cc1F [Compound No. 1-10, 2-(1-(2-(3-Fluoro-4-methoxy-phenyl)-6,6-dioxo-5,7-dihydro-thieno[3,4-d]pyrimidin-4-yl)-2,3-dihydro-1H-indol-5-yl)acetic acid]"
245 to 247,100,< 100,"COc1ccc(-c2nc3c(c(N4CCc5cc(CC(=O)O)ccc54)n2)CS(=O)(=O)C3)cc1Cl [Compound No. 1-11, 2-(1-(2-(3-Chloro-4-methoxy-phenyl)-6,6-dioxo-5,7-dihydro-thieno[3,4-d]pyrimidin-4-yl)-2,3-dihydro-1H-indol-5-yl)acetic acid]"
239 to 243,108,< 100,"COc1ccc(-c2nc3c(c(N4CCc5cc(CC(=O)O)ccc54)n2)CS(=O)(=O)C3)cc1 [Compound No. 1-12, 2-(1-(2-(4-Methoxyphenyl)-6,6-dioxo-5,7-dihydro-thieno[3,4-d]pyrimidin-4-yl)-2,3-dihydro-1H-indol-5-yl)acetic acid]"
222 to 226,–,–,"CN(C)C(=O)COc1cccc2c1CCN2c1nc(-c2cccc(Cl)c2)nc2c1CS(=O)(=O)C2 [Compound No. 2-6, 2-((1-(2-(3-Chlorophenyl)-6,6-dioxo-5,7-dihydro-thieno[3,4-d]pyrimidin-4-yl)-2,3-dihydro-1H-indol-4-yl)oxy)-N,N-dimethyl-acetamide]"
231 to 233,–,–,"COc1ccc(-c2nc3c(c(N4CCc5c(OCC(=O)N(C)C)cccc54)n2)CS(=O)(=O)C3)cc1F [Compound No. 2-10, 2-((1-(2-(3-Fluoro-4-methoxy-phenyl)-6,6-dioxo-5,7-dihydro-thieno[3,4-d]pyrimidin-4-yl)-2,3-dihydro-1H-indol-4-yl)oxy)-N,N-dimethyl-acetamide]"
212 to 217,–,–,"CN(C)C(=O)COc1cccc2c1CCN2c1nc(-c2ccc(F)c(F)c2)nc2c1CS(=O)(=O)C2 [Compound No. 2-12, 2-((1-(2-(3,4-Difluoro-phenyl)-6,6-dioxo-5,7-dihydro-thieno[3,4-d]pyrimidin-4-yl)-2,3-dihydro-1H-indol-4-yl)oxy)-N,N-dimethyl-acetamide]"
209 to 212,61,100 to 1000,"O=C(COc1ccc2c(c1)N(c1nc(-c3ccc(Cl)s3)nc3c1CCC3)CC2)N1CCCC1 [Compound No. 2-142, 2-((1-(2-(5-Chlorothiophen-2-yl)-6,7-dihydro-5H-cyclopenta[d]pyrimidin-4-yl)indolin-6-yl)oxy)-1-(pyrrolidin-1-yl)ethanone]"
